{
  "source": "patent US11464826B2",
  "about": "“Composition comprising an algal proteoglycan extract and use thereof” (priority 2016, dated 2022)",
  "key": {"pancreatic carcinoma": {"system": "pancreatic carcinoma", "conditions": "cited from earlier work"}, "S-180 sarcoma": {"system": "S-180 sarcoma", "test": "Transplanted S-180 sarcoma in mice, tumor inhibition", "method": "Tumors, including B-16 melanoma and S-180 sarcoma, were provided by Shanghai Institute of Materia Medica of the Chinese Academy of Sciences.\nThe tumor tissue was made into cell suspension. The mice were inoculated subcutaneously in the right axilla with the cell suspension, about 4.5-5×10^6 cells/mouse. After 24 hours, the mice were randomly divided into different groups and housed in separate cages (n=6). […] The administration began on the second day and lasted for seven days, with different doses. The blank control group was given normal saline (NS). The animals were sacrificed and weighed (g body weight) 24 hours after drug withdrawal. The tumors were excised and weighed. The average tumor weight was calculated for each group. According to the following formula, the tumor inhibition rate was calculated and T test was conducted.\nAccording to the formula below, the tumor inhibition rate was calculated and T test was conducted.\n(§1) A=average tumor weight (g) of blank control group,\nB=average tumor weight (g) of therapeutic group"}, "liver cancer": {"system": "liver cancer", "conditions": "treatment group (placebo control group 7.9 months); cited from earlier work"}, "B16 melanoma": {"system": "B16 melanoma", "test": "Transplanted B16 melanoma in mice, tumor inhibition", "type": "in vivo, C57 mice", "conditions": "alone or combined, once a day for seven days", "method": "The tumor tissue was made into cell suspension. […] The blank control group was given normal saline (NS). […] The tumors were excised and weighed. The average tumor weight was calculated for each group.\nas §1\nB =average tumor weight (g) of therapeutic group"}, "[1]": {"conditions": "Table 15: Cyclophosphamide 7.5 mg/kg i.p, Algal proteoglycan 60 mg/kg p.o, alone or combined, once a day for seven days"}, "[2]": {"conditions": "Table 17: Etoposide 3 mg/kg i.p, Algal proteoglycan 20 mg/kg p.o, alone or combined, once a day for seven days"}, "[3]": {"conditions": "Table 14: Adriamycin 1 mg/kg i.p, Algal proteoglycan 30 mg/kg p.o"}, "[4]": {"conditions": "Table 16: Carboplatin 4 mg/kg i.p, Algal proteoglycan 20 mg/kg p.o, alone or combined, once a day for seven days"}, "[5]": {"conditions": "Table 12: Carboplatin 4 mg/kg i.p, Algal proteoglycan 30 mg/kg p.o"}, "[6]": {"conditions": "Table 13: Carboplatin 4 mg/kg i.p, Algal proteoglycan 60 mg/kg p.o"}, "[7]": {"conditions": "Table 18: 5-Fluorouracil 15 mg/kg i.p, Algal proteoglycan 20 mg/kg p.o, alone or combined, once a day for seven days"}},
  "note": "Read-outs that look alike come from different tables or passages of the source.",
  "data": [
    {"molecule": "Nc1ccn([C@@H]2O[C@H](CO)[C@@H](O)C2(F)F)c(=O)n1", "note": "[Gemcitabine]", "values": [
      {"measurement": "Overall survival", "setting": "pancreatic carcinoma; Abou-Alfa et al, 349 cases", "value": 6.2, "unit": "months"},
      {"measurement": "Overall survival", "setting": "pancreatic carcinoma; Berlin et al, 322 cases", "value": 5.4, "unit": "months"},
      {"measurement": "Overall survival", "setting": "pancreatic carcinoma; Colucci et al, 400 cases", "value": 7.2, "unit": "months"},
      {"measurement": "Overall survival", "setting": "pancreatic carcinoma; Cunningham et al, 533 cases", "value": 7.1, "unit": "months"},
      {"measurement": "Overall survival", "setting": "pancreatic carcinoma; Heinemann et al, 195 cases", "value": 6.0, "unit": "months"},
      {"measurement": "Overall survival", "setting": "pancreatic carcinoma; Hermann et al, 319 cases", "value": 7.2, "unit": "months"},
      {"measurement": "Overall survival", "setting": "pancreatic carcinoma; Louvet et al, 313 cases", "value": 7.1, "unit": "months"},
      {"measurement": "Overall survival", "setting": "pancreatic carcinoma; Oettle et al, 565 cases", "value": 6.3, "unit": "months"},
      {"measurement": "Overall survival", "setting": "pancreatic carcinoma; Poplon et al, 832 cases", "value": 4.9, "unit": "months"},
      {"measurement": "Overall survival", "setting": "pancreatic carcinoma; Rocha Lima et al, 342 cases", "value": 6.3, "unit": "months"},
      {"measurement": "Overall survival", "setting": "pancreatic carcinoma; Starhopoulos et al, 145 cases", "value": 6.4, "unit": "months"}
    ]},
    {"molecule": "O=P1(N(CCCl)CCCl)NCCCO1", "note": "(stereo not drawn) [Cyclophosphamide]", "values": [
      {"measurement": "Body Weight (g) in the Beginning", "setting": "S-180 sarcoma; [1]", "value": 22.8, "unit": "g"},
      {"measurement": "Body Weight (g) in the End", "setting": "S-180 sarcoma; [1]", "value": 24.9, "unit": "g"},
      {"measurement": "Tumor Inhibition Rate (%)", "setting": "S-180 sarcoma; [1]", "value": 42.2, "unit": "%"},
      {"measurement": "Tumor Weight (g) x ± SD", "setting": "S-180 sarcoma; [1]", "value": "1.11 ± 0.24", "unit": "g"}
    ]},
    {"molecule": "CNC(=O)c1cc(Oc2ccc(NC(=O)Nc3ccc(Cl)c(C(F)(F)F)c3)cc2)ccn1", "note": "[Sorafenib]", "values": [
      {"measurement": "median survival time", "setting": "liver cancer", "value": 10.7, "unit": "months"}
    ]},
    {"molecule": "Gemcitabine + capecitabine", "values": [
      {"measurement": "Overall survival", "setting": "pancreatic carcinoma; Cunningham et al, 533 cases", "value": 6.2, "unit": "months"},
      {"measurement": "Overall survival", "setting": "pancreatic carcinoma; Hermann et al, 319 cases", "value": 8.4, "unit": "months"}
    ]},
    {"molecule": "COc1cc([C@@H]2c3cc4c(cc3[C@@H](O[C@@H]3O[C@@H]5CO[C@@H](C)O[C@H]5[C@H](O)[C@H]3O)[C@H]3COC(=O)[C@H]23)OCO4)cc(OC)c1O", "note": "[Etoposide]", "values": [
      {"measurement": "Tumor Inhibition Rate (%)", "setting": "S-180 sarcoma; [2]", "value": 26.9, "unit": "%"},
      {"measurement": "Tumor Weight (g) x ± SD", "setting": "S-180 sarcoma; [2]", "value": "1.33 ± 0.28", "unit": "g"}
    ]},
    {"molecule": "COc1cccc2c1C(=O)c1c(O)c3c(c(O)c1C2=O)C[C@@](O)(C(=O)CO)C[C@@H]3O[C@H]1C[C@H](N)[C@H](O)[C@H](C)O1", "note": "[Adriamycin]", "values": [
      {"measurement": "Tumor Inhibition Rate (%)", "setting": "B16 melanoma; [3]", "value": 41.5, "unit": "%"},
      {"measurement": "Tumor Weight (g) x ± SD", "setting": "B16 melanoma; [3]", "value": "1.97 ± 0.84", "unit": "g"}
    ]},
    {"molecule": "N.N.O=C([O-])C1(C(=O)[O-])CCC1.[Pt+2]", "note": "[Carboplatin]", "values": [
      {"measurement": "inhibitory effect on the growth of the transplanted tumor of S-180 sarcoma, in words", "setting": "S-180 sarcoma; Carboplatin 4 mg/kg used alone (P>0.05)", "value": "no inhibitory effect"},
      {"measurement": "Body Weight (g) in the End", "setting": "S-180 sarcoma; [4]", "value": 26.4, "unit": "g"},
      {"measurement": "Tumor Inhibition Rate (%)", "setting": "S-180 sarcoma; [4]", "value": 7.7, "unit": "%"},
      {"measurement": "Tumor Weight (g) x ± SD", "setting": "S-180 sarcoma; [4]", "value": "1.68 ± 0.53", "unit": "g"},
      {"measurement": "Body Weight (g) in the Beginning", "setting": "B16 melanoma; [5]", "value": 18.0, "unit": "g"},
      {"measurement": "Body Weight (g) in the End", "setting": "B16 melanoma; [5]", "value": 16.7, "unit": "g"},
      {"measurement": "Tumor Inhibition Rate (%)", "setting": "B16 melanoma; [5]", "value": 28.2, "unit": "%"},
      {"measurement": "Tumor Weight (g) x ± SD", "setting": "B16 melanoma; [5]", "value": "1.07 ± 0.88", "unit": "g"},
      {"measurement": "Body Weight (g) in the Beginning", "setting": "B16 melanoma; [6]", "value": 20.3, "unit": "g"},
      {"measurement": "Tumor Inhibition Rate (%)", "setting": "B16 melanoma; [6]", "value": 14.0, "unit": "%"},
      {"measurement": "Tumor Weight (g) x ± SD", "setting": "B16 melanoma; [6]", "value": "1.23 ± 0.37", "unit": "g"}
    ]},
    {"molecule": "O=c1[nH]cc(F)c(=O)[nH]1", "note": "[5-Fluorouracil, 5-fluorouracil]", "values": [
      {"measurement": "inhibitory effect on the transplanted tumor of S-180 sarcoma, in words", "setting": "S-180 sarcoma; 5-fluorouracil 15 mg/kg used alone", "value": "moderate inhibitory effect"},
      {"measurement": "Tumor Inhibition Rate (%)", "setting": "S-180 sarcoma; [7]", "value": 33.8, "unit": "%"},
      {"measurement": "Tumor Weight (g) x ± SD", "setting": "S-180 sarcoma; [7]", "value": "1.04 ± 0.52", "unit": "g"}
    ]},
    {"molecule": "Gemcitabine + cisplatin", "values": [
      {"measurement": "Overall survival", "setting": "pancreatic carcinoma; Colucci et al, 400 cases", "value": 8.2, "unit": "months"},
      {"measurement": "Overall survival", "setting": "pancreatic carcinoma; Heinemann et al, 195 cases", "value": 7.5, "unit": "months"}
    ]},
    {"molecule": "Nc1ccn([C@@H]2O[C@H](CO)[C@@H](O)C2(F)F)c(=O)n1", "note": "[Gemcitabine FDR.]", "values": [
      {"measurement": "Overall survival", "setting": "pancreatic carcinoma; Poplon et al, 832 cases", "value": 6.2, "unit": "months"}
    ]}
  ]
}
